{"source": "patent US7531555B2", "about": "“Compositions and methods for selective inhibition of nicotine acetylcholine receptors” (University of Florida Research Foundation, Inc., priority 2003, dated 2009)", "format_in_all_cases": "cell-based", "key": {"Human α3β2": {"biological_target": "T1, Human α3β2 (Homo sapiens, UniProt P17787+P32297)", "T1 construct": "expressed in transfected cells; host or cells: Xenopus laevis oocytes injected with subunit cRNAs", "T1 sequence (P32297 32-505)": "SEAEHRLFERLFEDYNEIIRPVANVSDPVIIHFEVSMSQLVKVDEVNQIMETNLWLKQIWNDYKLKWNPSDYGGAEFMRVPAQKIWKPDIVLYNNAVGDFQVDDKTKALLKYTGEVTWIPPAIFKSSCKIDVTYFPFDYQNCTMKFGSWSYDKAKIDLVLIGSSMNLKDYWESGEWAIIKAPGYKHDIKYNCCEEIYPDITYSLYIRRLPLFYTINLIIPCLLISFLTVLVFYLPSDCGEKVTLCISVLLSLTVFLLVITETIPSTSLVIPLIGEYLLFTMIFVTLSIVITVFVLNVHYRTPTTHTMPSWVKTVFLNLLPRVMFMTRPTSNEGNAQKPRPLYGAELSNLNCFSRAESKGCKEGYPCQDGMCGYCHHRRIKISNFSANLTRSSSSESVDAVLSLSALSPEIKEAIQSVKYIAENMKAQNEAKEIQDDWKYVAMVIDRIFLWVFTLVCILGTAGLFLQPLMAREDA", "T1 sequence (P17787 26-502)": "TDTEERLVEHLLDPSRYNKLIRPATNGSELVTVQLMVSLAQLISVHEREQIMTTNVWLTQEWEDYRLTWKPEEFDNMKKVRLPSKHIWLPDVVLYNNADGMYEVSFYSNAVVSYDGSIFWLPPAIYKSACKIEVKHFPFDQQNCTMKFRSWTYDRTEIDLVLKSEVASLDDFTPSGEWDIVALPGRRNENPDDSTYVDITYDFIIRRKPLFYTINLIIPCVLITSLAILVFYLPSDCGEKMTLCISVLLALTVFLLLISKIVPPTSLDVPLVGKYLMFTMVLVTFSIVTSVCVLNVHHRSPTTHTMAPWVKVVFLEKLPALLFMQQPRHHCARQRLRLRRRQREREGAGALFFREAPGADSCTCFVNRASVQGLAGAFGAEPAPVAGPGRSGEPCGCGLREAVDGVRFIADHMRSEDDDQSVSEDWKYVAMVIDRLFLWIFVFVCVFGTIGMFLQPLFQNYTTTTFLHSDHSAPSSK", "assay": "Voltage clamp of Xenopus oocytes expressing human α3β2 nAChR", "experimental": "(§1) Mature (>9 cm) female Xenopus laevis African frogs (NASCO, Ft. Atkinson, Wis.) were used as a source of oocytes. Prior to surgery, frogs were anesthetized by placing the animal in a 1.5 g/l solution of MS222 (3-aminobenzoic acid ethyl ester) for 30 minutes. Oocytes were removed from an incision made in the abdomen.\n(§2) In order to remove the follicular cell layer, harvested oocytes were treated with 1.25 mg/ml collagenase from Worthington Biochemical Corporation (Freehold, N.J.) for 2 hours at room temperature in calcium-free Barth's solution (88 mM NaCl, 10 mM HEPES pH 7.6, 0.33 mM MgSO4, 0.1 mg/ml gentamicin sulfate). Subsequently, stage 5 oocytes were isolated and injected with 50 nl (5-20 ng) each of the appropriate subunit cRNAs. Recordings were made 2 to 15 days after injection.\n(§3) After linearization and purification of cloned cDNAs, RNA transcripts were prepared in vitro using the appropriate mMessage mMachine kit from Ambion Inc. (Austin, Tex.).\n(§4) Electrophysiology. The majority of experiments were conducted using OpusXpress 6000A (Axon Instruments, Union City Calif.). OpusXpress is an integrated system that provides automated impalement and voltage clamp of up to eight oocytes in parallel. Cells were automatically perfused with bath solution, and agonist solutions were delivered from a 96-well plate. Both the voltage and current electrodes were filled with 3 M KCl. The agonist solutions were applied via disposable tips, which eliminated any possibility of cross-contamination. Drug applications alternated between ACh controls and experimental applications. Flow rates were set at 2 ml/min for experiments with α7 receptors and 4 ml/min for other subtypes. Cells were voltage-clamped at a holding potential of −60 mV. Data were collected at 50 Hz and filtered at 20 Hz. Agonist applications were 12 seconds in duration followed by 181-second washout periods for α7 receptors and 8 seconds with 241-second wash periods for other subtypes. For some experiments, particularly under conditions where residual inhibition precluded making repeated measurements from single cells (see below), manual oocyte recordings were made as previously described (Papke and Papke Br J of Pharmacol, 2002, 137:49-61). In brief, Warner Instruments (Hamden, Conn.) OC-725C oocyte amplifiers were used, and data were acquired with a minidigi or digidata 1200A with pClamp9 software (Axon Instruments). Sampling rates were between 10 and 20 Hz and the data were filtered at 6 Hz. Cells were voltage clamped at a holding potential of −50 mV.\nExperimental protocols and data analysis. Each oocyte received two initial control applications of ACh, an experimental drug application (or co-application of ACh and TMPH), and then follow-up control application(s) of ACh. The control ACh concentrations for α1β1γδ, α3β4, α4β2, α3β2, α3β2α5, α3β2β3, α6/3β2β3 α6β4β3 and α7, receptors were 30 μM, 100 μM, 10 μM, 30 μM, 1 μM 100 μM 100 μM 100 μM and 300 μM, respectively. In other experiments (Papke et al. J. Neurochem., 2000, 75:204-216; Papke and Papke Br J of Pharmacol, 2002, 137:49-61) these concentrations were determined to be the EC74, EC15, EC22, EC17, EC40, EC70, EC55, EC70 and EC100, respectively. […]\nResponses to experimental drug applications were calculated relative to the preceding ACh control responses in order to normalize the data, compensating for the varying levels of channel expression among the oocytes. […]"}, "Rat α6/3β2β3": {"biological_target": "T2, Rat α6/3β2β3 (Rattus norvegicus, UniProt P04757+P12390+P12391+P43143)", "T2 construct": "evaluation of the effects of the α6 extracellular domain; remainder of rat α3 subunit (transmembrane and intracellular part); expressed in transfected cells; host or cells: Xenopus laevis oocytes injected with subunit cRNAs; α6/3 clone from Michael McIntosh (University of Utah), corrected in house by QuickChange", "T2 sequence (P43143+P04757 fused with the stated changes)": "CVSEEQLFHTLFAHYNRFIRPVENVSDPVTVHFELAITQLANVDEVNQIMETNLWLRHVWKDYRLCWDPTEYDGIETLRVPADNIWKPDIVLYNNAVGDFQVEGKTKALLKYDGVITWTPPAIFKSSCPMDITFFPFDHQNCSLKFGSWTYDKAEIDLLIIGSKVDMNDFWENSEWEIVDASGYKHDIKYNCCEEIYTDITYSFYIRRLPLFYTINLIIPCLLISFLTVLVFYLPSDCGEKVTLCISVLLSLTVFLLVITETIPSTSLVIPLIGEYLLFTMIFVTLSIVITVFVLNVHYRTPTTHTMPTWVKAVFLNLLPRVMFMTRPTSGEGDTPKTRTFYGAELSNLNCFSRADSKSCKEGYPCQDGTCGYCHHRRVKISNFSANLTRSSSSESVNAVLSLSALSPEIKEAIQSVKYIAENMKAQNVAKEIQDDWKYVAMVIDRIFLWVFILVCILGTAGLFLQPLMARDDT", "T2 sequence (P12390 25-500)": "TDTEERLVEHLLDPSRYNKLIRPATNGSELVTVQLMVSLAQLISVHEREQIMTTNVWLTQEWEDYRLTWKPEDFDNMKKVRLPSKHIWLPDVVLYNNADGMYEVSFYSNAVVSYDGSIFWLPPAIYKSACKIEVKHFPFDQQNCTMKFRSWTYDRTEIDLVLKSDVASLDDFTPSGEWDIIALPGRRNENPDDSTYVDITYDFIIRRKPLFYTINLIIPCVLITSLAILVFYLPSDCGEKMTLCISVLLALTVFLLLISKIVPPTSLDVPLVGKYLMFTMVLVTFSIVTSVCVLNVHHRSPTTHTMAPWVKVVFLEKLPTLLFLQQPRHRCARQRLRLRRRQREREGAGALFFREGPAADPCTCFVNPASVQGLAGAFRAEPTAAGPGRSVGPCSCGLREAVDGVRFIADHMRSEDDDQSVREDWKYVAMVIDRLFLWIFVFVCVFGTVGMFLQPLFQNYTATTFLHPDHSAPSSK", "T2 sequence (P12391 31-464)": "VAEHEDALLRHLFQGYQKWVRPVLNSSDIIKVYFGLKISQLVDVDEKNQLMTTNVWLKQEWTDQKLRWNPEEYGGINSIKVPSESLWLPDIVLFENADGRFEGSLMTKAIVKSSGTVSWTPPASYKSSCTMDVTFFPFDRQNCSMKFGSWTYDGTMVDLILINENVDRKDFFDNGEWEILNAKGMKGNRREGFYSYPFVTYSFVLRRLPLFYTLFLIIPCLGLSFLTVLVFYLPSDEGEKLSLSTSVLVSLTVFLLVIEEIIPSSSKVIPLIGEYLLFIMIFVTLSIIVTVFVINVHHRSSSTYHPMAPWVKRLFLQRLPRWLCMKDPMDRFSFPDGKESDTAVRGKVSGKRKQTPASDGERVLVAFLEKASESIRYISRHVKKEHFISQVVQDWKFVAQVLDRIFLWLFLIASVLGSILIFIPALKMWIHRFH", "assay": "Voltage clamp of Xenopus oocytes expressing α6/3 chimera with β2 and β3", "experimental": "as §1, §2\n(§5) Rat neuronal nAChR clones and mouse muscle nAChR cDNA clones were used. The wild-type clones were obtained from Dr. Jim Boulter (UCLA). The rat α6/3 (Dowell et al. J Neurosci, 2003, 23:8445-8452) clone was obtained from Michael McIntosh (University of Utah) and expressed in Xenopus oocytes in combinations with rat β2 and β3. […] The TM2 domain is understood to line the pore of the channel, with alpha helix structure. The 7′ position may actually be directed away from the actual pore lining, but this residue is highly conserved in all of the nAChR. It is valine in all of them except α9 (isoleucine) and β1, where it is alanine. The TM2 mutation in the α6/3 chimera was corrected by using QuickChange (Stratagene) according to their protocols. The corrected α6/3 chimera sequence was confirmed by restriction diagnostics and by automated fluorescent sequencing (University of Florida core facility). The corrected clone was expressed as above in Xenopus oocytes with β2 and β3 and compared to the wild-type α3 co-expressed with β2 and β3.\nas §3\nas §4, with “Cells were voltage clamped at a holding potential of −50 mV.” left out"}, "Rat α6β4β3": {"biological_target": "T3, Rat α6β4β3 (Rattus norvegicus, UniProt P12391+P12392+P43143)", "T3 construct": "oocytes expressing the complete wild-type α6 subunits were tested; expressed in transfected cells; host or cells: Xenopus laevis oocytes injected with subunit cRNAs; clones from Dr. Jim Boulter (UCLA)", "T3 sequence (P43143 31-493)": "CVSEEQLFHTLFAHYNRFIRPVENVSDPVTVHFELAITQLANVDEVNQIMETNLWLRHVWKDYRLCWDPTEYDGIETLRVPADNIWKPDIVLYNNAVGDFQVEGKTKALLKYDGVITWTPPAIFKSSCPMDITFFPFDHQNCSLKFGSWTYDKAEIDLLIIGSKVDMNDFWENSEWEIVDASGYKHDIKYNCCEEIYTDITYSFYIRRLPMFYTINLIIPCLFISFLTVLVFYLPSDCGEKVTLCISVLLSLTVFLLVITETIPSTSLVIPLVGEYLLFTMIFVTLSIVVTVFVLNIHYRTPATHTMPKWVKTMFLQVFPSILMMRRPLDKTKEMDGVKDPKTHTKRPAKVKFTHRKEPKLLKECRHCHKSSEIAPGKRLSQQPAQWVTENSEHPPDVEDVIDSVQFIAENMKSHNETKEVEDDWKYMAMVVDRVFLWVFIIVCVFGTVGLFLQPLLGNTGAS", "T3 sequence (P12392 21-495)": "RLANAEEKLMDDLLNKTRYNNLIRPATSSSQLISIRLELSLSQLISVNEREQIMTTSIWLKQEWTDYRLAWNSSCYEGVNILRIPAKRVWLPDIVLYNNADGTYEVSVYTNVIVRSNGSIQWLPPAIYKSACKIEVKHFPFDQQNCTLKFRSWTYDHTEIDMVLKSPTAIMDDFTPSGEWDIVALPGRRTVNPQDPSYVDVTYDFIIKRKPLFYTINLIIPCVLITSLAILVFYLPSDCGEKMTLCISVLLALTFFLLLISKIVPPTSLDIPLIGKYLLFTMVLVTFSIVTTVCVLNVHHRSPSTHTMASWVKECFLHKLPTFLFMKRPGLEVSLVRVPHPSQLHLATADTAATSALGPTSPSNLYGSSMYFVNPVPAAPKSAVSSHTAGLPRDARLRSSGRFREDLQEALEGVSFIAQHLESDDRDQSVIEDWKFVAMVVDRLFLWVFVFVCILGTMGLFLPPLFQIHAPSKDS", "T3 sequence (P12391 31-464)": "as the sequence (P12391 31-464) above", "assay": "Voltage clamp of Xenopus oocytes expressing α6β4β3 nAChR", "experimental": "as §1, §2, §5, §3\nas §4, with “Cells were voltage clamped at a holding potential of −50 mV.” left out"}, "[1]": {"conditions": "inhibition still present after 5-minute wash, read-out: IC50 (recovery)"}, "[2]": {"conditions": "decrease in net charge, 100 μM ACh co-applied with TMPH, read-out: IC50 (area)"}, "[3]": {"conditions": "decrease in peak current amplitude, 100 μM ACh co-applied with TMPH, read-out: IC50 (peak)"}}, "note": "Read-outs that look alike come from different tables or passages of the source.", "data": [{"smiles": "CCCCCCC(=O)OC1CC(C)(C)NC(C)(C)C1", "note": "[TMPH, 2,2,6,6-tetramethylpiperidin-4-yl heptanoate]", "values": [{"measurement": "IC50", "setting": "Human α3β2; decrease in net charge, 30 μM ACh co-applied with TMPH, read-out: IC50 (area)", "value": "460 ± 170", "unit": "nM"}, {"measurement": "IC50", "setting": "Human α3β2; decrease in peak current amplitude, 30 μM ACh co-applied with TMPH, read-out: IC50 (peak)", "value": "3700 ± 1200", "unit": "nM"}, {"measurement": "IC50", "setting": "Human α3β2; [1]", "value": "400 ± 120", "unit": "nM"}, {"measurement": "IC50 net charge/IC50 peak", "setting": "Human α3β2; ratio", "value": 0.12}, {"measurement": "IC50 recovery/IC50 net charge", "setting": "Human α3β2; ratio", "value": 0.87}, {"measurement": "IC50", "setting": "Rat α6/3β2β3; [2]", "value": "1000 ± 300", "unit": "nM"}, {"measurement": "IC50", "setting": "Rat α6/3β2β3; [3]", "value": "60000 ± 20000", "unit": "nM"}, {"measurement": "IC50", "setting": "Rat α6/3β2β3; [1]", "value": "2300 ± 500", "unit": "nM"}, {"measurement": "IC50 net charge/IC50 peak", "setting": "Rat α6/3β2β3; ratio", "value": ".017"}, {"measurement": "IC50 recovery/IC50 net charge", "setting": "Rat α6/3β2β3; ratio", "value": 2.0}, {"measurement": "IC50", "setting": "Rat α6β4β3; [2]", "value": "18.3 ± 4.9", "unit": "µM"}, {"measurement": "IC50", "setting": "Rat α6β4β3; [3]", "value": "11 ± 4.4", "unit": "µM"}, {"measurement": "IC50", "setting": "Rat α6β4β3; [1]", "value": "1700 ± 420", "unit": "µM"}, {"measurement": "IC50 net charge/IC50 peak", "setting": "Rat α6β4β3; ratio", "value": 1.7}, {"measurement": "IC50 recovery/IC50 net charge", "setting": "Rat α6β4β3; ratio", "value": 93}]}]}
